{"source": "paper PMC4928094", "about": "“The first characterization of multidrug and toxin extrusion (MATE/SLC47) proteins in zebrafish (Danio rerio)” (Scientific Reports, 2016)", "key": {"zebrafish Mate7": {"biological_target": "zebrafish Mate7 (Danio rerio, UniProt U3PTD6)", "sequence (U3PTD6 entry or part of it)": "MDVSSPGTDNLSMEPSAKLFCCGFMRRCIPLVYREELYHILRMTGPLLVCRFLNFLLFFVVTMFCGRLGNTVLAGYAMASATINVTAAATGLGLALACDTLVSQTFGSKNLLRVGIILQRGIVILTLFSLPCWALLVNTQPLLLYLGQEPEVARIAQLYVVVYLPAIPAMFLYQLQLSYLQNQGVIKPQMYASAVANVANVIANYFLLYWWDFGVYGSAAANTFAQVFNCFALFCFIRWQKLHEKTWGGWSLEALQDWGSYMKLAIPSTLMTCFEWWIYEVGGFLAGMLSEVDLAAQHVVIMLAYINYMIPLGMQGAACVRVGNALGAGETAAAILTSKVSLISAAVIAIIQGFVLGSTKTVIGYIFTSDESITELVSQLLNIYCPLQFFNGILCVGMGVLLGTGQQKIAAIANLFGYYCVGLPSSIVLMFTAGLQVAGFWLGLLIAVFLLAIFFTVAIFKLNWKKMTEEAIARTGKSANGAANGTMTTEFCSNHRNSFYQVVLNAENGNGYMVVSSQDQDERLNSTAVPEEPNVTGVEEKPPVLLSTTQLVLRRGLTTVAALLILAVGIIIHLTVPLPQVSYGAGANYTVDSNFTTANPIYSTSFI", "experiment": "DAPI inhibition assay, Mate7", "assay_type": "cell-based", "conditions": "for interaction strength: Mate7, class by IC50 of DAPI uptake inhibition", "procedure": "(§1) HEK293T cells were transiently transfected as described previously[31] using the PEI (polyethyleneimine) reagent in 48-well plates. Cells were in parallel transfected with pcDNA3.1/His/LacZ plasmid and transfection efficiency was evaluated 24 h after transfection with the LacZ staining protocol.\n(§2) HEK293T cells overexpressing respective single zebrafish Mate transporter were used for further experiments. […] DAPI fluorescence was measured at 360 and 460 nm […], respectively. The uptake into vector-transfected HEK293T cells (mock cells) was subtracted to obtain transporter-specific uptake.\n(§3) Inhibition assays using DAPI as a fluorescent substrate were performed in the same transport medium. […] Compounds tested for interaction were checked using at least four concentrations but only a representative concentration (with the highest response or the largest concentration in solubility range) is shown.\n(§4) For the purpose of IC50 calculations, data were fitted to the sigmoidal four-parameter dose-response model (variable slope),"}, "zebrafish Mate6": {"biological_target": "zebrafish Mate6 (Danio rerio, UniProt A1L2E7)", "sequence (A1L2E7 entry or part of it)": "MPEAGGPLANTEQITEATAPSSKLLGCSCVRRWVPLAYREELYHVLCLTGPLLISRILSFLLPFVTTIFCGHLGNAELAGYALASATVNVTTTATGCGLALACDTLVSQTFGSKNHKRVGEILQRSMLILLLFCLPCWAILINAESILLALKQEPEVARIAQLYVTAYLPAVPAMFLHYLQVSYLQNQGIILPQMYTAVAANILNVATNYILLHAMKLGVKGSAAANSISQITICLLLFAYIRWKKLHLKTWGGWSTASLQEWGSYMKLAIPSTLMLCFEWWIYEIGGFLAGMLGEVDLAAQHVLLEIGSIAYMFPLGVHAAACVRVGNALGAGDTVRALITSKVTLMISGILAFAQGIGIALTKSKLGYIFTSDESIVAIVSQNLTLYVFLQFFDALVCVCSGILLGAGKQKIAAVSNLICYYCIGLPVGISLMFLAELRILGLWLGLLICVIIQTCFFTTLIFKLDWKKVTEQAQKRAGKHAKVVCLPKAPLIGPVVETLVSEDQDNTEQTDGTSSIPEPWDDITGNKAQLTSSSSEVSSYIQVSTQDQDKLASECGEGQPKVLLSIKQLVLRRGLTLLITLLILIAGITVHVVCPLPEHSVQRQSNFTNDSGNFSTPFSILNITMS", "experiment": "DAPI inhibition assay, Mate6", "assay_type": "cell-based", "procedure": "as §1, §2, §3, §4"}, "zebrafish Mate4": {"biological_target": "zebrafish Mate4 (Danio rerio, UniProt U3Q0C3)", "sequence (U3Q0C3 entry or part of it)": "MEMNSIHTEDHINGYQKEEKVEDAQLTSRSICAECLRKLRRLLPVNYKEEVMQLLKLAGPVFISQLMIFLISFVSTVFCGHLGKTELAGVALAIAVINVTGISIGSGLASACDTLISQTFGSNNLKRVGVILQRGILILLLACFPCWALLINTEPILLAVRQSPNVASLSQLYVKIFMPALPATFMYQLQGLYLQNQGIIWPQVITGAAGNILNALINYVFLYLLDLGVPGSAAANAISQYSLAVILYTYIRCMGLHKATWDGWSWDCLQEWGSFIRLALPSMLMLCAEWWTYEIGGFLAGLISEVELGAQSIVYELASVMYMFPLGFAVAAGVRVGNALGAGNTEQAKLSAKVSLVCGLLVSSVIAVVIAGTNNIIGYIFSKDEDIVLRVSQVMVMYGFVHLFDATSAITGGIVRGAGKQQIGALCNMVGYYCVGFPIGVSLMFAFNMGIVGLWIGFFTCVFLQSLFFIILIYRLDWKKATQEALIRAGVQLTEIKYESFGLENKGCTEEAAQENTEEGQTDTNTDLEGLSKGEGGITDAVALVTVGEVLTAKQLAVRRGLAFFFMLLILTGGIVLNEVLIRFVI", "experiment": "DAPI inhibition assay, Mate4", "assay_type": "cell-based", "procedure": "as §1, §2, §3, §4"}, "rat Mate1": {"tested_on": "rat Mate1", "conditions": "rat Mate1 ref 3; cited from earlier work"}, "zebrafish Mate8": {"biological_target": "zebrafish Mate8 (Danio rerio, UniProt A0A8M6YZ09)", "sequence (A0A8M6YZ09 entry or part of it)": "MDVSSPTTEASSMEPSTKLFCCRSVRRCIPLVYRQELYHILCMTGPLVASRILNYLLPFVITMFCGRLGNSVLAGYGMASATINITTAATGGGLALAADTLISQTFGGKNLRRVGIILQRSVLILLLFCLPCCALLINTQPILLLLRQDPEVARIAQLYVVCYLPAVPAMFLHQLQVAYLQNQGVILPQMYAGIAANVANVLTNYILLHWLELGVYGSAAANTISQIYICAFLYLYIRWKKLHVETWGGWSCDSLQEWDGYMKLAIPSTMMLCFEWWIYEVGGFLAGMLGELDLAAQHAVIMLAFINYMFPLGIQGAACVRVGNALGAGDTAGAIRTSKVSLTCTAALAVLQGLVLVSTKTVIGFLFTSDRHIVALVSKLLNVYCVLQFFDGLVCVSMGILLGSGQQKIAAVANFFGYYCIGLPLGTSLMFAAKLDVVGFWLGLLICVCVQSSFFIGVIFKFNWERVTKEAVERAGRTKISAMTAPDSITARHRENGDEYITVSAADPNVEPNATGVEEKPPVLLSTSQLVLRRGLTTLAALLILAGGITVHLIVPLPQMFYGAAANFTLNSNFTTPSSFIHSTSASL", "experiment": "DAPI inhibition assay, Mate8", "assay_type": "cell-based", "conditions": "for interaction strength: Mate8, class by IC50 of DAPI uptake inhibition", "procedure": "as §1, §2, §3, §4"}, "human MATE1": {"tested_on": "human MATE1", "conditions": "human MATE1 ref 40; cited from earlier work"}, "human MATE2": {"tested_on": "human MATE2", "conditions": "human MATE2 ref 40; cited from earlier work"}}, "note": "Read-outs that look alike come from different tables or passages of the source.", "data": [{"smiles": "CN/C(=N/CCSCc1nc[nH]c1C)NC#N", "note": "[Cimetidine, cimetidine, reference compound]", "values": [{"measurement": "IC50", "setting": "zebrafish Mate7", "value": 573, "unit": "µM"}, {"measurement": "interaction strength", "setting": "zebrafish Mate7", "value": "weak (IC50 of 100–999 μM was classified as weak interaction)"}, {"measurement": "IC50", "setting": "zebrafish Mate6", "value": 357, "unit": "µM"}, {"measurement": "IC50", "setting": "zebrafish Mate4", "value": 134, "unit": "µM"}, {"measurement": "Km", "setting": "rat Mate1", "value": 3, "unit": "µM"}, {"measurement": "IC50", "setting": "zebrafish Mate8", "value": 4.5, "unit": "µM"}, {"measurement": "interaction strength", "setting": "zebrafish Mate8", "value": "strong (Compounds with IC50 of 1–29 μM were designated as strong interactors)"}]}, {"smiles": "Cc1ncc(C[n+]2csc(CCO)c2C)c(N)n1", "note": "[Thiamine, thiamine]", "values": [{"measurement": "interaction strength", "setting": "zebrafish Mate7", "value": "weak (IC50 of 100–999 μM was classified as weak interaction)"}, {"measurement": "IC50", "setting": "zebrafish Mate7; read-out: IC50", "value": 935, "unit": "µM"}, {"measurement": "Km", "setting": "human MATE1", "value": 3.5, "unit": "µM"}, {"measurement": "IC50", "setting": "zebrafish Mate6; read-out: IC50", "value": 724, "unit": "µM"}, {"measurement": "IC50", "setting": "zebrafish Mate4; read-out: IC50", "value": 805, "unit": "µM"}, {"measurement": "interaction strength", "setting": "zebrafish Mate8", "value": "very weak (substances with IC50 above 1000 μM were considered very weak interactors)"}, {"measurement": "IC50", "setting": "zebrafish Mate8; read-out: IC50", "value": 1900, "unit": "µM"}, {"measurement": "Km", "setting": "human MATE2", "value": 3.9, "unit": "µM"}]}]}
